Earlier results as cited in patent US20120021064A1, “COMPOSITIONS FOR BOWEL PREPARATION AND METHODS OF USE THEREOF” (Salix Pharmaceuticals, Ltd., priority 2009, published 2012).
Where two headings read alike, the source gives them in different places.

## CC(=O)Oc1ccc(C(c2ccc(OC(C)=O)cc2)c2ccccn2)cc1 [Bisacodyl]
enemas
  time to produce a bowel movement: about 20 minutes
suppositories
  time to produce a bowel movement: about an hour
